Usually IC50 stands for the point on the concentration scale where inhibition reaches its midpoint. As usually defined, the Ki is a dissociation constant, usually derived from enzyme kinetics or from competition with a known ligand.

Where a SMILES comes first, the peptide text is derived from it.

Series [1] concerns the target Calpain I (Rattus norvegicus, UniProt P97571). Briefly: Kapp/[I] progress curve method, rat Calpain I (Table 1C). The class given is biochemical. As to conditions: Suc-leu-tyr-amidomethylcoumarin. Here is the method:
(§1) The Halo-Ketone Peptides, like the substituted isocoumarins, are irreversible inhibitors of Calpain. We determined the Kapp /[I] values for various members of this class of compounds against Calpains I and II. For comparison, we also determined these values against the additional thiol proteases Papain and Cathepsin B for at least one Halo-Ketone Peptide.
(§2) We assayed Calpain I and II using Suc-leu-tyr-amidomethylcoumarin. Papain was assayed using benzoyl-arg-4-nitroanilide, and Cathepsin B (bovine) was assayed using CBZ-lys-4-nitrophenyl ester. We followed the progress curve method of Tian and Tsou, Biochemistry, 21:1028-1032 (1982), the disclosure of which is hereby incorporated by reference, to derive kinetic data. Briefly, this method makes use of the equation: [formula] where [P.infin. ] represents the concentration of product formed at a time approaching infinity, A is the Kapp in the presence of substrate (S), K is the Michaelis constant and [Y] is the concentration of the inhibitor. Since [S] and [Y] are known and V and K can be determined, Kapp can be readily determined.

A further series concerns Calpain within platelets. Briefly: Platelet membrane permeation assay, spectrin proteolysis (Examples 4A, 4B). It is filed as cell-based, rat. Conditions: for inhibition of Calpain within platelets: 100 μM, A23187 1 μM; for IC50: concentration at which 50% of the Calpain activation present in controls occurred. A digest of the protocol: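 Rat (Sprague-Dawley) platelets at 10^7 cells/ml in HEPES buffer pH 7.4, preincubated 5 min with inhibitor, then 5 min with 1 μM A23187 to activate calpain. Spectrin proteolysis assessed by SDS-PAGE and anti-spectrin immunoblot, quantified by densitometry.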

For series [2], the system named is Calpain II. Put plainly: Kapp/[I] progress curve method, Calpain II (Table 1C). The class given is biochemical. The arrangement: unit not given here. As to conditions: Rabbit Calpain II, Suc-leu-tyr-amidomethylcoumarin. Here is the method: as §1, §2
The test system of series [3] is Calpain in crude brain extracts. Put plainly: Ca2+-stimulated spectrin proteolysis in crude brain extracts (Example 2). The class given is biochemical. Conditions: 100 μM. An outline of the steps: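 Brain tissue was homogenized in 10 mM Tris pH 7.4, 0.32 M sucrose, 1 mM EGTA and 1 mM DTT, and nuclei and debris were removed. Calpain activity was scored as Ca^2+-stimulated proteolysis of endogenous spectrin.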

Series [4] can be described thus: Stability in liver homogenates. The class given is in vitro ADME. Conditions: unit assumed. An excerpt: (§3) We determined the haft-life of several Peptide Keto-Compounds in both plasma and liver homogenates.
For series [5], the target named is Calpain II. Put plainly: Calpain II KI (Table 1B(ii)). The class given is biochemical. An excerpt:
(§4) We tested the ability of an additional group of Peptide Keto-Compounds to inhibit several proteases in order to evaluate their specificity for Calpain.

The subject of series [6] is rats with middle cerebral artery occlusion. Put plainly: MCA occlusion model (Example 6). The class given is in vivo, rat. As to conditions: infusion into femoral vein by 24 hr minipump; 24 hours after occlusion (FIG. 2). Here is the method: Male Sprague-Dawley albino rats weighing approximately 250-300 grams were anesthetized with pentobarbital (70 mg/kg, i.p.). The neck region was shaven and a 2 cm incision was made. The superficial fascia was teased away with tissue forceps and blunt tip tissue scissors using a spread method. The right common carotid artery was isolated away from the vagus nerve and tied off with a single suture (3.0 silk). The external carotid was permanently occluded by suturing. The bifurcation of the internal carotid and pterygopalatine arteries was exposed and a single microaneurysm clip was placed on the pterygopalatine. Another microaneurysm clip was placed on the common carotid just proximal to the external/internal bifurcation. A suture was placed loosely around the common carotid and a lumen was made in the vessel with the tip of a 25 g needle. A 40 mm nylon suture was prepared by melting the tip to smooth the pointed end and marked with a dot exactly 17.5 mm from the melted end. […]
Twenty-four hours after occlusion, the brains of these animals were removed and sliced into 2 mm sections. […] The sizes of the infarcted tissue zone ([…]) and impaired zone (area with partial development of red color) were evaluated using quantitative morphometry. […]

The target of another series is Chym (Bos taurus, UniProt P00766). Put plainly: Chym KI (Table 1B(ii)). The class given is biochemical.
Excerpt: as §4

For series [7], the target named is T1, Calpain I (Homo sapiens, UniProt P07384).
T1 sequence (P07384 1-714): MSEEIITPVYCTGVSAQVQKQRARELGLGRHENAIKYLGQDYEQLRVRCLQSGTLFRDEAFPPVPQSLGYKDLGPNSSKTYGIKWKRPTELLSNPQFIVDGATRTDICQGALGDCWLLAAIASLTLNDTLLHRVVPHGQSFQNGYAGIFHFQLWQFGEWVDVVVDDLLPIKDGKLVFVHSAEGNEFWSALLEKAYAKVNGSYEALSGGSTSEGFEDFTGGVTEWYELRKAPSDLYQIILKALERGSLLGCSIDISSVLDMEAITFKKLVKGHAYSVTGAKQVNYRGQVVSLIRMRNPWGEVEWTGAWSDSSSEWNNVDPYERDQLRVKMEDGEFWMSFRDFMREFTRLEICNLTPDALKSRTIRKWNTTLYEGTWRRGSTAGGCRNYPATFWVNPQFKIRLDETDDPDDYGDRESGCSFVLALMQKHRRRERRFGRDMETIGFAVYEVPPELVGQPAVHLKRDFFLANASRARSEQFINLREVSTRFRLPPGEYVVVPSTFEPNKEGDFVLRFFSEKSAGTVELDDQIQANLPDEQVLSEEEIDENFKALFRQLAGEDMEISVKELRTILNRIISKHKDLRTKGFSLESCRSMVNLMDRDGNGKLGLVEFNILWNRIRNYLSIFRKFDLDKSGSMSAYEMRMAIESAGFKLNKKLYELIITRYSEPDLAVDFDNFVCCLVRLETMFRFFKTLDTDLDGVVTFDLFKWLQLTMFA
T1 sequence (P04632 1-268 partner): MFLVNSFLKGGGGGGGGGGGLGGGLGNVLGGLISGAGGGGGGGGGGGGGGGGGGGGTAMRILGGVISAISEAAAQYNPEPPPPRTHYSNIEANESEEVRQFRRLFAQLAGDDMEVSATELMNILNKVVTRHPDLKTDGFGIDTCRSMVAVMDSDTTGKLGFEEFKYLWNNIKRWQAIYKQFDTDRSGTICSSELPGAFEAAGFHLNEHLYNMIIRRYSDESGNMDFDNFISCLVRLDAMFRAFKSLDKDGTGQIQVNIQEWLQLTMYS
Briefly: Calpain I KI (Table 1B(ii)). The class given is biochemical. As to conditions: for Ki: Table 1B(ii).
Excerpt: as §4

For another series, the target named is Cathepsin B (Bos taurus, UniProt P07688). Put plainly: Cathepsin B KI (Table 1B(ii)). As to conditions: read-out: KI CathB. It is filed as biochemical.
Excerpt: as §4

A further series can be described thus: Stability in plasma. The class given is in vitro ADME. As to conditions: unit assumed.
Excerpt: as §3

Another series deals with PP Elastase (Sus scrofa, UniProt P00772). Briefly: PP Elastase KI (Table 1B(ii)). The class given is biochemical.
Excerpt: as §4

A further series has as its system hippocampal slices. Put plainly: Hippocampal slice EPSP recovery from severe hypoxia (FIG. 5). As to conditions: one hour incubation. The class given is cell-based, rat. Here is the method:
These studies were performed in a manner similar to that of Example 7B, except using a hypoxic environment in place of the anoxia of Example 7B. […] The control slices experienced little or no recovery.

Chain of PP Elastase (P00772 27-266): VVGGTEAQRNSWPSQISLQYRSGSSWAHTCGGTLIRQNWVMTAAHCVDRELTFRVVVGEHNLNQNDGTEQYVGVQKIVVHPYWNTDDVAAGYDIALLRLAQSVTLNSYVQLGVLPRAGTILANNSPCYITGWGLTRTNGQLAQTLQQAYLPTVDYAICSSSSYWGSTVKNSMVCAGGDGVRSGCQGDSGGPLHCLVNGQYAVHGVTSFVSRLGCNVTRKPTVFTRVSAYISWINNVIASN
Chain of Calpain I (Rattus norvegicus, UniProt P97571) (P97571 whole entry): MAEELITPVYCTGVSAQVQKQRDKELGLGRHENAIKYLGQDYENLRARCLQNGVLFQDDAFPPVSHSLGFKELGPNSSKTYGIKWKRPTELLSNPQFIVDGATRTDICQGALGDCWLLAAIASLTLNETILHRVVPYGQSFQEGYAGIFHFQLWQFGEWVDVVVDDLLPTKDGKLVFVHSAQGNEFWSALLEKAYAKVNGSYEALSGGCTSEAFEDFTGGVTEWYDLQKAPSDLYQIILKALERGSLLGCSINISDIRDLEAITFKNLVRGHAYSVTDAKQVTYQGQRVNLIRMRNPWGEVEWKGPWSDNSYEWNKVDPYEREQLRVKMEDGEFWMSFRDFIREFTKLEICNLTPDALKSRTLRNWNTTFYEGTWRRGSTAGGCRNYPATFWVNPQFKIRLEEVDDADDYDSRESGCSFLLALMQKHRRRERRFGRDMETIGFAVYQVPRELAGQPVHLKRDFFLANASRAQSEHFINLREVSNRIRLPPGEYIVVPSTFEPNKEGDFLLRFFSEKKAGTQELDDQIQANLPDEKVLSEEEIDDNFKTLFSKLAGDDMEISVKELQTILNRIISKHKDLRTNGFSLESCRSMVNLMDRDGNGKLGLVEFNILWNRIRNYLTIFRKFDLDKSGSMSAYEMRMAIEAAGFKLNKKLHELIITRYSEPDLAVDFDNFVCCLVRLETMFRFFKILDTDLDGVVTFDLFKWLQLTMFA
Chain of Calpain I (Rattus norvegicus, UniProt P97571) (Q64537 whole entry partner): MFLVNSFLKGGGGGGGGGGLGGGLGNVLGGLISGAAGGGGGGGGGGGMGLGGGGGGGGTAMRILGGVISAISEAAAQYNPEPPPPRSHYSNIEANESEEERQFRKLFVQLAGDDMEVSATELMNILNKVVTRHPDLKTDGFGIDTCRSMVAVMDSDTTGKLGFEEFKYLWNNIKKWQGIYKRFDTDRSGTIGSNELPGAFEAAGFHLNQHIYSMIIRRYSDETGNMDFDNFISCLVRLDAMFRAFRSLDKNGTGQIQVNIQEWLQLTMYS

For `CC(=O)N[C@@H](CC(C)C)C(=O)N[C@@H](Cc1ccccc1)C(=O)CCl` [Ac-Leu-Phe-CH2 Cl] (HELM PEPTIDE1{[ac].L.F.[ClC[*:1]]}$$$$V2.0), at Calpain I [1], the “Kapp/[I] CI” value turned out to be 25900. Besides, the “inhibition of Calpain within platelets” value with Calpain within platelets is listed as “significant inhibition”. Moreover, the “Kapp/[I] CII” value in the series with Calpain II [2] is 33400. For the same molecule, the “inhibition of spectrin proteolysis in crude brain extracts” value in series [3] is given as “significant inhibition”.
In the case of `CC(C)C[C@H](NC(=O)CNC(=O)OCc1ccccc1)C(=O)N[C@@H](Cc1ccccc1)C(=O)CCl` [Z-Gly-Leu-Phe-CH2 Cl, reference compound] (HELM PEPTIDE1{[O=C(OCc1ccccc1)[*:2]].G.L.F.[ClC[*:1]]}$$$$V2.0), the “Kapp/[I] CI” value at Calpain I [1] is 284000. In addition, in the series with Calpain within platelets, the “inhibition of Calpain within platelets” value was “significant inhibition”. Also, the “Kapp/[I] CII” value in the series on Calpain II [2] is given as 946000. Further, the “inhibition of spectrin proteolysis in crude brain extracts” value in [3] is “significant inhibition”.
Molecule `CCNC(=O)C(=O)[C@H](CC)NC(=O)[C@H](CC(C)C)NC(=O)OCc1ccccc1` [Z-Leu-Abu-CONHEt, Z-Leu-Abu-CONH-Et] gave a t1/2 liver in series [4] of over 1 h. For the same molecule, the IC50 in the series with Calpain within platelets was found to be 1500 nM. Besides, the Ki on Calpain II [5] was 230 nM; at Chym, over 150000 nM; on Calpain I [7] it was 500 nM; at Cathepsin B it was 2400 nM; on PP Elastase, 65000 nM. Moreover, the “size of infarcted area” value in series [6] is reported as “reduction in the size of the infarcted area”. Also, the “better inhibitor of calpain I than Z-Leu-Phe-CONH-Et” value on Calpain I [7] (ratio of KI values) worked out at 14 fold. In addition, the t1/2 plasma in “Stability in plasma” was over 1 h.
In [4], `CCNC(=O)C(=O)[C@H](Cc1ccccc1)NC(=O)[C@H](CC(C)C)NC(=O)OCc1ccccc1` [Z-Leu-Phe-CONHEt, Z-Leu-Phe-CONH-Et] had a t1/2 liver of over 1 h. Besides, the “percent recovery of EPSP from severe hypoxia (FIG. 5)” value in the series with hippocampal slices is listed as about 100%. In the series on Calpain within platelets, the IC50 was found to be 1700 nM. The Ki at Calpain II [5] was 320 nM; at Chym, 73000 nM; at Calpain I [7] it was 7000 nM; on Cathepsin B, 6000 nM; at PP Elastase it was over 150000 nM. Also, in series [6], the “size of infarcted area” value was “reduction in the size of the infarcted area”. The t1/2 plasma in the series “Stability in plasma” was over 1 h.

The record behind these values is patent US5444042A, “Method of treatment of neurodegeneration with calpain inhibitors” (Cortex Pharmaceuticals, priority 1994, dated 1995).
